# Laboratory results from PMC5218480 (PLoS ONE, 2017).
# Test system: MV-4-11 cells
# Experiment: Gene expression microarray analysis (Affymetrix PrimeView) and GSEA
# Format: cell-based, human
# Design: RFU PODN (11730768_x_at) / Fold change /veh PODN (11730768_x_at) / RFU LINC00158 (11744669_a_at) / Fold change /veh LINC00158 (11744669_a_at) / RFU DUSP10 (11751237_a_at) / Fold change /veh DUSP10 (11751237_a_at) / RFU ID3 (11757404_x_at) / Fold change /veh ID3 (11757404_x_at) / RFU PLEKHG5 (11737974_s_at) / Fold change /veh PLEKHG5 (11737974_s_at) / RFU LRRC4B (11730491_at) / Fold change /veh LRRC4B (11730491_at) / RFU GIMAP4 (11747438_a_at) / Fold change /veh GIMAP4 (11747438_a_at) / RFU KRT8 (11758183_x_at) / Fold change /veh KRT8 (11758183_x_at) / RFU CNN1 (11734310_a_at) / Fold change /veh CNN1 (11734310_a_at) / RFU VPS37D (11726825_at) / Fold change /veh VPS37D (11726825_at) / RFU C10orf10 (11716522_x_at) / Fold change /veh C10orf10 (11716522_x_at) / RFU KIR2DL2 /// KIR2DL4 /// KIR2DL5A /// KIR2DL5B /// KIR2DS1 /// KIR2DS2 /// KIR2DS3 /// KIR2DS4 /// KIR3DL3 /// KIR3DL3 /// KIR3DS1 (11738374_at) / Fold change /veh KIR2DL2 /// KIR2DL4 /// KIR2DL5A /// KIR2DL5B /// KIR2DS1 /// KIR2DS2 /// KIR2DS3 /// KIR2DS4 /// KIR3DL3 /// KIR3DL3 /// KIR3DS1 (11738374_at) / RFU C1QL1 (11718748_at) / Fold change /veh C1QL1 (11718748_at) / RFU TMPRSS4 (11747572_a_at) / Fold change /veh TMPRSS4 (11747572_a_at) / RFU HAMP (11756126_x_at) / Fold change /veh HAMP (11756126_x_at) / RFU RNFT2 (11725882_a_at) / Fold change /veh RNFT2 (11725882_a_at) / RFU NR4A2 (11747474_a_at) / Fold change /veh NR4A2 (11747474_a_at) / RFU ABCC12 (11746883_a_at) / Fold change /veh ABCC12 (11746883_a_at) / RFU TMEM136 (11760407_x_at) / Fold change /veh TMEM136 (11760407_x_at) / RFU CLDN22 /// WWC2 (11732394_at) / Fold change /veh CLDN22 /// WWC2 (11732394_at) / RFU HLA-DPB1 (11760878_x_at) / Fold change /veh HLA-DPB1 (11760878_x_at) / RFU SPINT1 (11716480_a_at) / Fold change /veh SPINT1 (11716480_a_at) / RFU GAP43 (11754022_s_at) / Fold change /veh GAP43 (11754022_s_at) / RFU A4GNT (11735810_at) / Fold change /veh A4GNT (11735810_at) / RFU PRB3 (11715151_x_at) / Fold change /veh PRB3 (11715151_x_at) / RFU TUBB4B (11761932_at) / Fold change /veh TUBB4B (11761932_at) / RFU CAPN14 (11732068_a_at) / Fold change /veh CAPN14 (11732068_a_at) / RFU TMCC2 (11721928_a_at) / Fold change /veh TMCC2 (11721928_a_at) / RFU IRGQ (11745062_a_at) / Fold change /veh IRGQ (11745062_a_at) / RFU FAM174B (11720279_a_at) / Fold change /veh FAM174B (11720279_a_at) / RFU TMPRSS4 (11748680_a_at) / Fold change /veh TMPRSS4 (11748680_a_at) / RFU FAM212B (11763350_a_at) / Fold change /veh FAM212B (11763350_a_at) / RFU PLEKHG5 (11743358_a_at) / Fold change /veh PLEKHG5 (11743358_a_at) / RFU ZSCAN30 (11745921_a_at) / Fold change /veh ZSCAN30 (11745921_a_at) / RFU CMKLR1 (11741424_a_at) / Fold change /veh CMKLR1 (11741424_a_at) / RFU LOC101060620 /// MAPK8IP1 (11723275_at) / Fold change /veh LOC101060620 /// MAPK8IP1 (11723275_at) / RFU SPTSSB (11747773_x_at) / Fold change /veh SPTSSB (11747773_x_at) / RFU PRSS12 (11739890_at) / Fold change /veh PRSS12 (11739890_at) / RFU BIN1 (11741810_x_at) / Fold change /veh BIN1 (11741810_x_at) / RFU WNT11 (11732464_a_at) / Fold change /veh WNT11 (11732464_a_at) / RFU C10orf10 (11716521_a_at) / Fold change /veh C10orf10 (11716521_a_at) / RFU C5orf56 (11738089_at) / Fold change /veh C5orf56 (11738089_at) / RFU CYB561 (11721691_x_at) / Fold change /veh CYB561 (11721691_x_at) / RFU ANKRD19P (11752326_a_at) / Fold change /veh ANKRD19P (11752326_a_at) / RFU OR2T12 /// OR2T33 /// OR2T8 (11738714_s_at) / Fold change /veh OR2T12 /// OR2T33 /// OR2T8 (11738714_s_at) / RFU VCAN (11748164_a_at) / Fold change /veh VCAN (11748164_a_at) / RFU JSRP1 (11732532_at) / Fold change /veh JSRP1 (11732532_at) / RFU KRTAP10-11 (11738290_x_at) / Fold change /veh KRTAP10-11 (11738290_x_at) / RFU MYO3A (11730013_a_at) / Fold change /veh MYO3A (11730013_a_at) / RFU EBF3 (11725865_a_at) / Fold change /veh EBF3 (11725865_a_at) / RFU CAMK2N1 (11719241_x_at) / Fold change /veh CAMK2N1 (11719241_x_at) / RFU C5orf56 (11738088_a_at) / Fold change /veh C5orf56 (11738088_a_at) / RFU OLFML3 (11715873_a_at) / Fold change /veh OLFML3 (11715873_a_at) / RFU LOC100653217 /// NTM (11731650_a_at) / Fold change /veh LOC100653217 /// NTM (11731650_a_at) / RFU MAPK11 (11762145_a_at) / Fold change /veh MAPK11 (11762145_a_at) / RFU FIZ1 (11724087_x_at) / Fold change /veh FIZ1 (11724087_x_at) / RFU OASL (11726364_x_at) / Fold change /veh OASL (11726364_x_at) / RFU SOX15 (11748057_x_at) / Fold change /veh SOX15 (11748057_x_at) / RFU CD79A (11719716_a_at) / Fold change /veh CD79A (11719716_a_at) / RFU HIST1H1D (11736915_at) / Fold change /veh HIST1H1D (11736915_at) / RFU CASKIN2 (11723855_a_at) / Fold change /veh CASKIN2 (11723855_a_at) / RFU LOC730098 (11760151_x_at) / Fold change /veh LOC730098 (11760151_x_at) / RFU OR4N2 (11742367_at) / Fold change /veh OR4N2 (11742367_at) / RFU PRRT2 (11749266_a_at) / Fold change /veh PRRT2 (11749266_a_at) / RFU SNX32 (11753110_a_at) / Fold change /veh SNX32 (11753110_a_at) / RFU CDHR5 (11726645_a_at) / Fold change /veh CDHR5 (11726645_a_at) / RFU RCAN1 (11760418_a_at) / Fold change /veh RCAN1 (11760418_a_at) / RFU FAM167A (11723789_a_at) / Fold change /veh FAM167A (11723789_a_at) / RFU FAM26E (11764081_at) / Fold change /veh FAM26E (11764081_at) / RFU ISYNA1 (11749810_s_at) / Fold change /veh ISYNA1 (11749810_s_at) / RFU ACY1 (11761880_at) / Fold change /veh ACY1 (11761880_at) / RFU 11764098_at / Fold change /veh 11764098_at / RFU SAMD14 (11745864_x_at) / Fold change /veh SAMD14 (11745864_x_at) / RFU NPB (11741838_a_at) / Fold change /veh NPB (11741838_a_at) / RFU TMPRSS6 (11731388_a_at) / Fold change /veh TMPRSS6 (11731388_a_at) / RFU KRTAP10-2 (11738614_at) / Fold change /veh KRTAP10-2 (11738614_at) / RFU ARHGAP8 /// PRR5-ARHGAP8 (11727945_x_at) / Fold change /veh ARHGAP8 /// PRR5-ARHGAP8 (11727945_x_at) / RFU KRTAP5-7 /// NADSYN1 (11734609_at) / Fold change /veh KRTAP5-7 /// NADSYN1 (11734609_at) / RFU RASL12 (11751679_a_at) / Fold change /veh RASL12 (11751679_a_at) / RFU CDKN2B (11736163_a_at) / Fold change /veh CDKN2B (11736163_a_at) / RFU PRF1 (11729649_at) / Fold change /veh PRF1 (11729649_at) / RFU, ZNF638 /// ZNF638-IT1 / Fold change vs veh, ZNF638 /// ZNF638-IT1 / RFU, PANK3 / Fold change vs veh, PANK3 / RFU, SH3YL1 / Fold change vs veh, SH3YL1 / RFU, ZEB2 / Fold change vs veh, ZEB2 / RFU, NRIP1 / Fold change vs veh, NRIP1 / RFU, PTTG1IP / Fold change vs veh, PTTG1IP / RFU, CAPN2 / Fold change vs veh, CAPN2 / RFU, MED14 / Fold change vs veh, MED14 / RFU, SNORA58 / Fold change vs veh, SNORA58 / RFU, C1orf63 / Fold change vs veh, C1orf63 / RFU, LRRFIP1 / Fold change vs veh, LRRFIP1 / RFU, NDUFAF7 / Fold change vs veh, NDUFAF7 / RFU, SLC12A2 / Fold change vs veh, SLC12A2 / RFU, IBTK / Fold change vs veh, IBTK / RFU, ESF1 / Fold change vs veh, ESF1 / Fold change vs veh, TMEM50B / RFU, TAOK1 / Fold change vs veh, TAOK1 / RFU, ACBD3 / Fold change vs veh, ACBD3 / RFU, TMA16 / Fold change vs veh, TMA16 / RFU, RWDD3 / Fold change vs veh, RWDD3 / RFU, BCAT1 / Fold change vs veh, BCAT1 / RFU, EDEM3 / Fold change vs veh, EDEM3 / RFU, TMEM33 / Fold change vs veh, TMEM33 / RFU, WDR75 / Fold change vs veh, WDR75 / RFU, AHCTF1 / Fold change vs veh, AHCTF1 / RFU, TFRC / Fold change vs veh, TFRC / RFU, ZDHHC17 / Fold change vs veh, ZDHHC17 / RFU, NOM1 / Fold change vs veh, NOM1 / RFU, ARL8B / Fold change vs veh, ARL8B / RFU, ZBTB11 / Fold change vs veh, ZBTB11 / RFU, TAMM41 / Fold change vs veh, TAMM41 / RFU, KIAA1704 /// LOC100996395 / Fold change vs veh, KIAA1704 /// LOC100996395 / RFU, ING1 / Fold change vs veh, ING1 / RFU, TRMT61B / Fold change vs veh, TRMT61B / RFU, FUBP3 / Fold change vs veh, FUBP3 / RFU, TP53 / Fold change vs veh, TP53 / RFU, TNKS2 / Fold change vs veh, TNKS2 / RFU, ZFP14 / Fold change vs veh, ZFP14 / RFU, ACTR2 / Fold change vs veh, ACTR2 / RFU, PPP3R1 / Fold change vs veh, PPP3R1 / RFU, PIK3R1 / Fold change vs veh, PIK3R1 / RFU, HNRNPA1 / Fold change vs veh, HNRNPA1 / RFU, RNF170 / Fold change vs veh, RNF170 / RFU, ZNF28 / Fold change vs veh, ZNF28 / RFU, RNGTT / Fold change vs veh, RNGTT / RFU, OGT / Fold change vs veh, OGT / RFU, BRD1 / Fold change vs veh, BRD1 / RFU, MARS / Fold change vs veh, MARS / RFU, ZNF655 / Fold change vs veh, ZNF655 / RFU, FAHD1 / Fold change vs veh, FAHD1 / RFU, BDP1 / Fold change vs veh, BDP1 / RFU, LRRCC1 / Fold change vs veh, LRRCC1 / RFU, ARID1A / Fold change vs veh, ARID1A / RFU, ZNF146 / Fold change vs veh, ZNF146 / RFU, ZNF330 / Fold change vs veh, ZNF330 / RFU, GPN3 / Fold change vs veh, GPN3 / RFU, C9orf123 / Fold change vs veh, C9orf123 / RFU, N4BP2L2 / Fold change vs veh, N4BP2L2 / RFU, ARFIP1 / Fold change vs veh, ARFIP1 / RFU, FAM179B / Fold change vs veh, FAM179B / RFU, BCL10 / Fold change vs veh, BCL10 / RFU, UHRF1BP1L / Fold change vs veh, UHRF1BP1L / RFU, BET1 / Fold change vs veh, BET1 / RFU, CNOT2 / Fold change vs veh, CNOT2 / RFU, ZNF268 / Fold change vs veh, ZNF268 / Fold change vs veh, ZNF507 / RFU, DGCR2 / Fold change vs veh, DGCR2 / RFU, WDSUB1 / Fold change vs veh, WDSUB1 / Fold change vs veh, HSP90B1 /// MIR3652 / RFU, ADSS / Fold change vs veh, ADSS / RFU, GK / Fold change vs veh, GK / RFU, ZNF148 / Fold change vs veh, ZNF148 / RFU, TAF9 / Fold change vs veh, TAF9 / RFU, SLC1A5 / Fold change vs veh, SLC1A5 / RFU, SLMO2 / Fold change vs veh, SLMO2 / RFU, ABCC4 / Fold change vs veh, ABCC4 / RFU, LOC101060439 /// RAP1B / Fold change vs veh, LOC101060439 /// RAP1B / RFU, RFX7 / Fold change vs veh, RFX7 / RFU, GTPBP10 / Fold change vs veh, GTPBP10 / RFU, CNEP1R1 / Fold change vs veh, CNEP1R1 / RFU, BIVM-ERCC5 /// ERCC5 / Fold change vs veh, BIVM-ERCC5 /// ERCC5 / RFU, ILF3 / Fold change vs veh, ILF3 / RFU 11762660_at / Fold change /veh 11762660_at / RFU VCAN (11757783_s_at) / Fold change /veh VCAN (11757783_s_at) / RFU DDX43 (11728927_at) / Fold change /veh DDX43 (11728927_at) / RFU KRT8 (11758188_x_at) / Fold change /veh KRT8 (11758188_x_at) / RFU NKD1 (11759106_at) / Fold change /veh NKD1 (11759106_at) / RFU SRD5A1 (11742802_a_at) / Fold change /veh SRD5A1 (11742802_a_at) / RFU TPSAB1 /// TPSB2 (11721975_s_at) / Fold change /veh TPSAB1 /// TPSB2 (11721975_s_at) / RFU GSTM3 (11746129_a_at) / Fold change /veh GSTM3 (11746129_a_at) / RFU IL23R (11737362_x_at) / Fold change /veh IL23R (11737362_x_at) / RFU TMEM51 (11727254_a_at) / Fold change /veh TMEM51 (11727254_a_at) / RFU PIWIL2 (11732686_x_at) / Fold change /veh PIWIL2 (11732686_x_at) / RFU ORM1 (11744905_x_at) / Fold change /veh ORM1 (11744905_x_at) / RFU CCDC152 (11743942_at) / Fold change /veh CCDC152 (11743942_at) / RFU ECM1 (11717891_a_at) / Fold change /veh ECM1 (11717891_a_at) / RFU IL23R (11748794_a_at) / Fold change /veh IL23R (11748794_a_at) / RFU TNFAIP8L3 (11732012_x_at) / Fold change /veh TNFAIP8L3 (11732012_x_at) / RFU MBOAT4 (11741988_at) / Fold change /veh MBOAT4 (11741988_at) / RFU 11764193_at / Fold change /veh 11764193_at / RFU TMEM53 (11763286_at) / Fold change /veh TMEM53 (11763286_at) / RFU MAGEB2 (11727129_at) / Fold change /veh MAGEB2 (11727129_at) / RFU TMEM200A (11744735_a_at) / Fold change /veh TMEM200A (11744735_a_at) / RFU CCDC152 (11751479_a_at) / Fold change /veh CCDC152 (11751479_a_at) / RFU FAM211A (11726209_a_at) / Fold change /veh FAM211A (11726209_a_at) / RFU RGS16 (11746705_a_at) / Fold change /veh RGS16 (11746705_a_at) / RFU VCAN (11755009_s_at) / Fold change /veh VCAN (11755009_s_at) / RFU RHOB (11743442_s_at) / Fold change /veh RHOB (11743442_s_at) / RFU RGS16 (11720943_a_at) / Fold change /veh RGS16 (11720943_a_at) / RFU RGS16 (11720944_at) / Fold change /veh RGS16 (11720944_at) / RFU, VPS4B / Fold change vs veh, VPS4B / RFU, CREB1 / Fold change vs veh, CREB1 / RFU, DNAJC13 / Fold change vs veh, DNAJC13 / RFU, GNAQ / Fold change vs veh, GNAQ / RFU, CDK5R1 / Fold change vs veh, CDK5R1 / RFU, ZRANB3 / Fold change vs veh, ZRANB3 / RFU, CUL4A / Fold change vs veh, CUL4A / RFU, CCNY / Fold change vs veh, CCNY / RFU, UFL1 / Fold change vs veh, UFL1 / RFU, COG3 / Fold change vs veh, COG3 / RFU, DIAPH2 / Fold change vs veh, DIAPH2 / RFU, SKA2 / Fold change vs veh, SKA2 / RFU, AFF3 / Fold change vs veh, AFF3 / RFU, LMF1 / Fold change vs veh, LMF1 / RFU, IPO11 / Fold change vs veh, IPO11 / RFU, DFFB / Fold change vs veh, DFFB / RFU, FOXP1 / Fold change vs veh, FOXP1 / RFU, CARD8 / Fold change vs veh, CARD8 / RFU, STRN3 / Fold change vs veh, STRN3 / RFU, ADK / Fold change vs veh, ADK / RFU, RASSF2 / Fold change vs veh, RASSF2 / RFU, WIPF1 / Fold change vs veh, WIPF1 / RFU, LARP1B / Fold change vs veh, LARP1B / RFU, RASA1 / Fold change vs veh, RASA1 / RFU, RB1 / Fold change vs veh, RB1 / RFU, PPFIA1 / Fold change vs veh, PPFIA1 / RFU, MAT2A / Fold change vs veh, MAT2A / RFU, CCT5 / Fold change vs veh, CCT5 / RFU, WDR92 / Fold change vs veh, WDR92 / RFU, CUX1 / Fold change vs veh, CUX1 / RFU, TTC7A / Fold change vs veh, TTC7A / RFU, TMEM135 / Fold change vs veh, TMEM135 / RFU, DEPTOR / Fold change vs veh, DEPTOR / RFU, CPM / Fold change vs veh, CPM / RFU, DNAJB6 / Fold change vs veh, DNAJB6 / RFU, CACNA2D3 / Fold change vs veh, CACNA2D3 / RFU, DTX4 / Fold change vs veh, DTX4 / RFU, TFCP2 / Fold change vs veh, TFCP2 / RFU, GMCL1 /// GMCL1P1 / Fold change vs veh, GMCL1 /// GMCL1P1 / RFU, AEBP2 / Fold change vs veh, AEBP2 / RFU, SNHG1 /// SNORD22 /// SNORD25 /// SNORD26 /// SNORD27 /// SNORD28 /// SNORD29 /// SNORD31 / Fold change vs veh, SNHG1 /// SNORD22 /// SNORD25 /// SNORD26 /// SNORD27 /// SNORD28 /// SNORD29 /// SNORD31 / Fold change (Aza/veh), C12orf56 (ProbeSet 11735607_a_at) / Fold change (ACY-1035/veh), C12orf56 (ProbeSet 11735607_a_at) / Fold change (Aza/veh), FGFR1OP (ProbeSet 11751329_s_at) / Fold change (ACY-1035/veh), FGFR1OP (ProbeSet 11751329_s_at) / Fold change (Aza/veh), VPS36 (ProbeSet 11739960_a_at) / Fold change (ACY-1035/veh), VPS36 (ProbeSet 11739960_a_at) / RFU SYPL1 (11715823_x_at) / Fold change /veh SYPL1 (11715823_x_at) / RFU IGFBP7 (11715501_s_at) / Fold change /veh IGFBP7 (11715501_s_at) / RFU REEP3 (11722064_at) / Fold change /veh REEP3 (11722064_at) / RFU IGLL1 (11728026_x_at) / Fold change /veh IGLL1 (11728026_x_at): dose or concentration left out as unconfirmed
# Details: MV-4-11 cells, 48 hours
smiles,measurement,value
Nc1ncn([C@@H]2O[C@H](CO)[C@@H](O)[C@H]2O)c(=O)n1 [azacitidine],Fold change /veh SAMD14 (11745864_x_at),0.91
